Measured values from PubChem BioAssay (NCI).
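Where inhibition never reached the appropriate level, the endpoint shown equals the highest concentration tested. Otherwise, values were interpolated linearly from a five-concentration, 48-hour dose response in 96-well plates. TGI marks complete inhibition of growth.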

Assays:
Assay in all cases: NCI anticancer screen, dose series, 48 h
[1] = test system: OVCAR-4 ovarian
[2] = test system: HCC-2998 colon
[3] = test system: EKVX NSCLC
[4] = test system: SK-MEL-2 melanoma
[5] = test system: SK-MEL-28 melanoma
[6] = test system: PC-3 prostate
[7] = test system: SK-OV-3 ovarian
[8] = test system: NCI/ADR-RES ovarian
[9] = test system: A498 renal
[10] = test system: HCT-116 colon
[11] = test system: CAKI-1 renal
[12] = test system: COLO 205 colon
[13] = test system: HOP-92 NSCLC
[14] = test system: A549 NSCLC
[15] = test system: NCI-H226 lung
[16] = test system: SW-620 colon
[17] = test system: UACC-62 melanoma
[18] = test system: SNB-19 CNS
[19] = test system: MDA-MB-231 breast
[20] = test system: BT-549 breast
[21] = test system: NCI-H460 lung
[22] = test system: MDA-MB-435
[23] = test system: SR leukemia
[24] = test system: LOX IMVI melanoma
[25] = test system: NCI-H23 lung
[26] = test system: ACHN renal
[27] = test system: SK-MEL-5 melanoma
[28] = test system: K-562 leukemia
[29] = test system: HOP-62 NSCLC
[30] = test system: OVCAR-8 ovarian
[31] = test system: TK-10 renal
[32] = test system: CCRF-CEM leukemia
[33] = test system: 786-0 renal
[34] = test system: SN12C renal
[35] = test system: SF-539 CNS
[36] = test system: IGROV1 ovarian
[37] = test system: MDA-N
[38] = test system: SF-295 CNS
[39] = test system: MCF7 breast
[40] = test system: HCT-15 colon
[41] = test system: MALME-3M melanoma
[42] = test system: HT29 colon
[43] = test system: OVCAR-3 ovarian
[44] = test system: KM12 colon
[45] = test system: RXF 393 renal
[46] = test system: OVCAR-5 ovarian
[47] = test system: U251 CNS
[48] = test system: M14 melanoma
[49] = test system: UACC-257 melanoma
[50] = test system: SNB-75 CNS
[51] = test system: HL-60(TB) leukemia
[52] = test system: HS 578T breast
[53] = test system: MOLT-4 leukemia
[54] = test system: UO-31 renal
[55] = test system: SF-268 CNS
[56] = test system: RPMI-8226 leukemia
[57] = test system: T-47D breast
[58] = test system: DU-145 prostate

With `NC(=S)N=Nc1c(O)[nH]c2c(Cl)cc(Cl)cc12` the TGI [1] was > 100 µM, the TGI [2] was > 100 µM and the TGI [3] was > 100 µM. The TGI [4] was 34.8 µM, the TGI [5] was 29.6 µM and the TGI [6] was 81.1 µM. For the same compound, the TGI [7] was > 100 µM, the TGI [8] was 38.7 µM and the TGI [9] was > 100 µM. For the same compound, the TGI [10] was 40.5 µM, the TGI [11] was > 100 µM and the TGI [12] was 41.8 µM. For the same compound, the TGI [13] was > 100 µM, the TGI [14] was > 100 µM and the TGI [15] was 30.3 µM. For the same compound, the TGI [16] was > 100 µM, the TGI [17] was 34.1 µM and the TGI [18] was > 100 µM. The TGI [19] was 50.2 µM, the TGI [20] was 50.4 µM and the TGI [21] was > 100 µM. The TGI [22] was 34 µM, the TGI [23] was 70.4 µM and the TGI [24] was 48 µM. The TGI [25] was > 100 µM, the TGI [26] was > 100 µM and the TGI [27] was 28.2 µM. For the same compound, the TGI [28] was > 100 µM, the TGI [29] was 49.4 µM and the TGI [30] was 40.8 µM. The TGI [31] was > 100 µM, the TGI [32] was > 100 µM and the TGI [33] was 92.9 µM. The TGI [34] was 52.8 µM, the TGI [35] was 34.6 µM and the TGI [36] was > 100 µM. The TGI [37] was 35.1 µM, the TGI [38] was 46.6 µM and the TGI [39] was > 100 µM. The TGI [40] was > 100 µM, the TGI [41] was 35.2 µM and the TGI [42] was 42 µM. It also gave a TGI [43] of 34.8 µM, a TGI [44] of 42.2 µM and a TGI [45] of 33.7 µM. The TGI [46] was > 100 µM, the TGI [47] was 40.9 µM and the TGI [48] was 32.3 µM. For the same compound, the TGI [49] was 86.2 µM, the TGI [50] was 42.4 µM and the TGI [51] was 49.6 µM. The TGI [52] was 72.5 µM, the TGI [53] was 67.8 µM and the TGI [54] was > 100 µM.

`O=C1c2c(O)cc(O)cc2C(C2OC(CO)C(O)C(O)C2O)c2cc(CO)cc(O)c21` (centres undefined) was tested, and the TGI [1] was > 100 µM, the TGI [2] was > 100 µM and the TGI [55] was > 100 µM. For the same compound, the TGI [3] was > 100 µM, the TGI [5] was > 100 µM and the TGI [6] was > 100 µM. For the same compound, the TGI [56] was > 100 µM, the TGI [7] was > 100 µM and the TGI [8] was > 100 µM. The TGI [9] was > 100 µM, the TGI [10] was > 100 µM and the TGI [12] was > 100 µM. The TGI [13] was > 100 µM, the TGI [14] was > 100 µM and the TGI [15] was > 100 µM. For the same compound, the TGI [57] was > 100 µM, the TGI [16] was > 100 µM and the TGI [17] was > 100 µM. The TGI [18] was > 100 µM, the TGI [19] was > 100 µM and the TGI [20] was > 100 µM. For the same compound, the TGI [21] was > 100 µM, the TGI [22] was > 100 µM and the TGI [23] was > 100 µM. For the same compound, the TGI [25] was > 100 µM, the TGI [26] was > 100 µM and the TGI [27] was > 100 µM. For the same compound, the TGI [28] was > 100 µM, the TGI [29] was > 100 µM and the TGI [30] was > 100 µM. The TGI [31] was > 100 µM, the TGI [33] was > 100 µM and the TGI [34] was > 100 µM. For the same compound, the TGI [36] was > 100 µM, the TGI [37] was > 100 µM and the TGI [38] was > 100 µM. The TGI [39] was > 100 µM, the TGI [40] was > 100 µM and the TGI [41] was > 100 µM. For the same compound, the TGI [42] was > 100 µM, the TGI [43] was > 100 µM and the TGI [46] was > 100 µM. The TGI [47] was > 100 µM, the TGI [48] was > 100 µM and the TGI [58] was > 100 µM. For the same compound, the TGI [49] was > 100 µM, the TGI [50] was 54.9 µM and the TGI [51] was > 100 µM. The TGI [53] was > 100 µM and the TGI [54] was > 100 µM.
